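Exposure lasted 48 hours, with cells grown in 96-well plates and compounds tested at five concentrations. The concentration for 50% growth inhibition is given as GI50. TGI is the concentration that stops growth completely.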 Where a SMILES comes first, the peptide text is derived from it. The star is where a group is joined. Fmoc = O=C(OCC1c2ccccc2-c2ccccc21)*; Boc = CC(C)(C)OC(=O)*
How the values were obtained:
Test in all cases: NCI-60 cell line screen, 48 h
CCRF-CEM leukemia = test system: CCRF-CEM leukemia
EKVX NSCLC = test system: EKVX NSCLC
MDA-MB-435 = test system: MDA-MB-435
OVCAR-8 ovarian = test system: OVCAR-8 ovarian
SF-268 CNS = test system: SF-268 CNS
SF-295 CNS = test system: SF-295 CNS
SK-MEL-5 melanoma = test system: SK-MEL-5 melanoma
UACC-257 melanoma = test system: UACC-257 melanoma
UO-31 renal = test system: UO-31 renal
IGROV1 ovarian = test system: IGROV1 ovarian

SMILES	TGI (CCRF-CEM leukemia) [µM]	TGI (EKVX NSCLC) [µM]	TGI (MDA-MB-435) [µM]	TGI (OVCAR-8 ovarian) [µM]	TGI (SF-268 CNS) [µM]	TGI (SF-295 CNS) [µM]	TGI (SK-MEL-5 melanoma) [µM]	TGI (UACC-257 melanoma) [µM]	TGI (UO-31 renal) [µM]	TGI (IGROV1 ovarian) [µM]	GI50 (CCRF-CEM leukemia) [µM]	GI50 (EKVX NSCLC) [µM]	GI50 (IGROV1 ovarian) [µM]	GI50 (MDA-MB-435) [µM]	GI50 (OVCAR-8 ovarian) [µM]	GI50 (SF-268 CNS) [µM]	GI50 (SF-295 CNS) [µM]	GI50 (SK-MEL-5 melanoma) [µM]	GI50 (UACC-257 melanoma) [µM]
CCOC(=O)c1c(N2CCCC2)[nH]c(=O)c(C(c2ccco2)c2c(O)c(C(=O)OCC)c(N3CCCC3)[nH]c2=O)c1O	> 100	> 100	> 100	> 100	> 100	> 100	> 100	> 100	> 100										
CC(C)(C)OC(=O)NCCCCC(NC(=O)OCC1c2ccccc2-c2ccccc21)C(=O)N1CCCC1C(=O)NCC(N)=O (stereo not drawn) (Fmoc-Lys(Boc)-Pro-Gly-NH2; configuration not given here)	> 100	> 100	84.8	> 100	> 100	> 100	> 100	> 100	29.1	> 100									
O=C1/C(=C/c2ccccc2O)N=C(c2ccccc2)N1c1nc2ccccc2s1	> 100	> 100	> 100	72.6	77.7	87.1	23.3	79.2	> 100	> 100									
O=C/C=C/c1ccco1	> 100	> 100	> 100	> 100	> 100	> 100	> 100	> 100	> 100	> 100									
O=C1CCCC/C1=C\c1ccc(Br)cc1	94.4	62.8	30.6	> 100	36.3	49.7	44.5	70.3	29.6	38.3									
COc1ccc(C(SCCO)(c2ccccc2)c2ccccc2)cc1	64.8	28.3	27.1	38.5	31.7	28.6	21.7	32.7	28.1										
COC(=O)C1CCC(=O)N1C(c1ccc(OC)cc1)c1ccc(OC)cc1 (stereo unspecified)	> 100	> 100	> 100	> 100	> 100	> 100	> 100	> 100	> 100	> 100									
NC1CC2NC3CCCCC3NC2CC1N (stereo unspecified)	> 100	> 100	> 100	> 100	> 100	> 100	67.3	> 100	> 100	> 100									
NCCCNC1(c2cc3ccccc3s2)CCCCC1	13	22.5	4.48	24.4	24.7	24.8	3.31	3.23	8.44	24.3									
O=C1[C@@H]2[C@@H](c3ccccc3)[C@]2(Cl)C(=O)[C@H]2[C@H](c3ccccc3)[C@@]12Cl	> 100	> 100	> 100	> 100	> 100	> 100	> 100	> 100	> 100	> 100									
O=C(/C=C/c1ccc(/C=C/C(=O)c2ccc(O)cc2)cc1)c1ccc(O)cc1	> 100	> 100	> 100	> 100	> 100	> 100	> 100	> 100	> 100										
CCSc1cc(=O)n(C)c(=O)n1C	> 100	> 100	> 100	> 100	> 100	> 100	> 100	> 100	> 100										
CC1C2CC(C(S(=O)(=O)N3CCOCC3)/C2=N\O)C1(C)C (stereo unspecified)	> 100	> 100	> 100	> 100	> 100	> 100	> 100	> 100	> 100	> 100									
Cn1/c(=N\S(=O)(=O)c2ccccc2)n(S(=O)(=O)c2ccccc2)c2ccccc21	83.3	> 100	> 100	> 100	> 100	> 100	> 100	> 100	> 100	> 100									
CCOC(=O)NC(NC1=NCCS1)(C(=O)OCC)C(F)(F)F (stereo unspecified)	> 100	> 100	> 100	> 100	> 100	> 100	> 100	> 100	> 100	> 100									
COc1ccc2oc(OC)c(CC=C(C)C)c(=O)c2c1C	> 100	> 100	> 100	> 100	> 100	> 100	> 100	> 100	> 100	> 100									
COc1ccc2sc(-n3nc4ccccc4c3Nc3nc4ccc(OC)cc4s3)nc2c1	> 100	19.3	12	6.17	32.5	12.8	9.97	19.5	34	8.47									
CCOC(=O)C1OC(C2(C)OC3(OC4(C=CC3O)OC(C(C)C(=O)C(C)C(O)C(C)CC(C)c3c(Cl)cc(C)c(O)c3C(=O)O)C(C)CC4C)C(C)C2OC)CC1O (stereo unspecified)	1.04	5.02	1.22	13.3	6.85	3.89	5.59	8.54	3.95	16.5									
CC(C)(C)c1cc(C2=NN(c3ccccc3)C(c3ccccc3)C2)cc(C(C)(C)C)c1O (stereo unspecified)	> 100	> 100	> 100	> 100	> 100	> 100	> 100	> 100	> 100	> 100									
Brc1ccc2c([C@H]3CN[C@@H](c4c[nH]c5cc(Br)ccc45)CN3)c[nH]c2c1	8.64	23.2	3.11	3.38	20.4	19.3	15.6	28.1	13.8	8.2									
O=S(=O)(O)ON=C1c2ccccc2-c2ccccc21	> 100	> 100	> 100	> 100	> 100	> 100	> 100	> 100	> 100	> 100									

SMILES	TGI (CCRF-CEM leukemia) [µM]	TGI (EKVX NSCLC) [µM]	TGI (MDA-MB-435) [µM]	TGI (OVCAR-8 ovarian) [µM]	TGI (SF-268 CNS) [µM]	TGI (SF-295 CNS) [µM]	TGI (SK-MEL-5 melanoma) [µM]	TGI (UACC-257 melanoma) [µM]	TGI (UO-31 renal) [µM]	TGI (IGROV1 ovarian) [µM]	GI50 (CCRF-CEM leukemia) [µM]	GI50 (EKVX NSCLC) [µM]	GI50 (IGROV1 ovarian) [µM]	GI50 (MDA-MB-435) [µM]	GI50 (OVCAR-8 ovarian) [µM]	GI50 (SF-268 CNS) [µM]	GI50 (SF-295 CNS) [µM]	GI50 (SK-MEL-5 melanoma) [µM]	GI50 (UACC-257 melanoma) [µM]
N=C(N)SCc1ccc(Cl)cc1Cl (tested in a mixture with another compound)	15.5	37.2	18.3	> 100	40	31.3	29.2	20.7	23.1	42.9									
Cc1ccc(-n2[nH]nc(C#N)c2=O)cc1	> 100	> 100	> 100	> 100	> 100	> 100	> 100	> 100	> 100	> 100									
O=C(Cc1nccc2c1[nH]c1ccccc12)OC1C#CCSCC#C/C=C\1 (stereo unspecified)	> 100	> 100	> 100	> 100	> 100	> 100	> 100	> 100	> 100	> 100									
COc1ccc(/C=C2\CCC(CNc3ccc(OC)cc3)C2=O)cc1 (stereo unspecified)	29.9	> 73.5	40.6	36.3	34.1	> 31.6	35.2	34.5	36.1	19.2									
Cc1cc(C)c2c(n1)S(=O)(=O)N(CCCN1CCN(c3cccc(C(F)(F)F)c3)CC1)c1c-2nn(C)c1C	> 100	> 100	> 100	> 100	> 100	> 100	> 100	> 100	> 100	> 100									
Cn1c2ccccc2c2c(=O)[nH]c(=O)[nH]c21	> 100	> 100	> 100	> 100	> 100	> 100	> 100	> 100	> 100	> 100									
CSc1c(C#N)c(N)nc2c(N=Nc3ccc(Cl)cc3)c(N)nn12	5.47	11.4	28.1	4.15	5.7	62.3	35	10.2	4.42	3.46									
Cc1cc(Cc2c(F)c(F)c(C(c3cc(C)no3)c3c(F)c(F)c(F)c(F)c3F)c(F)c2F)on1 (stereo unspecified)	> 100	> 100	> 41.9	> 100	> 100	> 100	> 100	> 100	> 100	> 100									
c1csc(-c2cc(-c3cccs3)c(-c3cccs3)s2)c1	> 100	> 100	> 100	> 100	> 100	> 100	> 100	> 100	> 100	> 100									
CN(C)c1nncc2[nH]cnc12	> 100	> 100	> 100	> 100	> 100	> 100	> 100	> 100	> 100	> 100									
Cc1ccc(O)c(-c2cc(-c3cccc(Cl)c3)c(C#N)c(N)n2)c1	55.2	58.9	34.3	> 100	51.3	32.6	29.2		52.8	24.6									
CCOC(=O)C(C(=S)Nc1ccccc1)c1nn2c(=O)cc(C)nc2s1 (stereo unspecified)	> 100	49.2	47.7	51	> 100	> 100	41.1	52.2	70	> 100									
O=c1[nH]c(Nc2cc(Cl)cc(Cl)c2)nc2nc[nH]c12	> 75	> 75	> 75	> 75	> 75	> 75	> 75	> 75	> 75	> 75									
Cc1noc2nnn(-c3ccc(Cl)cc3)c(=O)c12	2.48	20.4	16.2	29.8	22.1	27.8	13	20.9	8.63	19.2									
CCOC(=O)c1ccc(C(=O)/C(C(C)=O)=C2\CCCN2C)n1C	> 100	> 100	> 100	> 100	> 100	> 100	> 100	> 100	> 100	> 100									
c1ccc2c(c1)ncn2C1CCCCO1 (stereo unspecified)	> 100	> 100	> 100	> 100	> 100	> 100	> 100	> 100	> 100	> 100									
CSc1ccc(NC(=S)NN(C)C)cc1	> 10	> 10	> 10	> 10	> 10	> 10	> 10	> 10	> 10	> 10									
CC(=C(C(N)=O)C(N)=O)C1C=C(c2cccs2)CC(c2ccc(Cl)cc2)=C1O (stereo unspecified)	79.4	> 100	> 100	> 100	> 100	> 100	> 100	> 100	> 100	> 100									
O=C1/C(=C/c2ccc(Cl)cc2)N=C(c2ccccc2)N1CCc1cccs1	> 100	> 100	> 100	> 100	> 100	> 100	33.2	> 100		> 100	22.7	13.8	36.7	28	43.8	31.7	17.7	15.6	36
N=c1c2c(-c3ccccc3)c[nH]c2ncn1N	> 100	> 100	> 100	> 100		> 100	> 100	> 100	> 100	> 100									
COc1ccc(OC)c(CC2CCc3nc(N)nc(N)c3C2)c1 (stereo unspecified)	> 100	> 100	54	> 100		27.7	28.9	34.4	> 75.4	28.1									
